Values after ≈ are worked out from the molar mass of the structure shown. Marks after values point to notes of the source that are not given here.
Key:
[1] = test system: Candida glabrata ATCC 2001 (strain H); assay: Antifungal MIC determination (CLSI M27-A3, 96-well); format: cell-based; details: Nakaseomyces glabratus, ATCC2001; strain H; azoles; read-out: MIC-2
Method in brief: (§1)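 Yeasts were precultured in potato dextrose broth, then diluted in RPMI 1640 (pH 7.0, 0.165 M MOPS) to a final 5×10^3 CFU/mL. Compounds were serially diluted two-fold to 12.5-0.02 μg/mL. Plates were incubated 48 h at 35° C.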

[2] = test system: Candida krusei ATCC 6258 (strain I); assay: as above; format: cell-based; details: Pichia kudriavzevii, ATCC6258; strain I; azoles; read-out: MIC-2
Method in brief: as §1

[3] = test system: Candida parapsilosis ATCC 22019 (strain J); assay: as above; format: cell-based; details: Lodderomyces parapsilosis, ATCC22019; strain J; azoles; read-out: MIC-2
Method in brief: as §1

[4] = test system: Aspergillus flavus ATCC MYA-3631 (strain K); assay: Antifungal MIC determination, filamentous fungi spores; format: cell-based; details: Aspergillus flavus, all compounds, read-out: MIC-0
Method in brief: (§2)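 A modified CLSI M27-A3 protocol is used, with final compound levels from 12.5 to 0.02 μg/mL in two-fold steps. Cells are incubated at 5×10^3 CFU/mL in buffered RPMI 1640 at 35° C for 48 h.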

[5] = test system: Candida albicans ATCC 10231 (strain A); details: azoles, previously reported (Shrestha 2015); cited from earlier work
[6] = test system: C. albicans ATCC 64124 (strain B); details: azoles, previously reported (Shrestha 2015); cited from earlier work
[7] = test system: C. albicans ATCC MYA-2876(S) (strain C); details: azoles, previously reported (Shrestha 2015); cited from earlier work
[8] = test system: C. albicans ATCC 90819(R) (strain D); details: azoles, previously reported (Shrestha 2015); cited from earlier work
[9] = test system: C. albicans ATCC MYA-2310(S) (strain E); details: azoles, previously reported (Shrestha 2015); cited from earlier work
[10] = test system: C. albicans ATCC MYA-1237(R) (strain F); details: azoles, previously reported (Shrestha 2015); cited from earlier work
[11] = test system: C. albicans ATCC MYA-1003(R) (strain G); details: azoles, previously reported (Shrestha 2015); cited from earlier work
[12] = test system: Aspergillus nidulans ATCC 38163 (strain L); details: azoles, previously reported (Shrestha 2015); cited from earlier work
[13] = test system: Aspergillus terreus ATCC MYA-3633 (strain M); assay: Antifungal MIC determination, filamentous fungi spores; format: cell-based; details: Aspergillus terreus; strain M; all compounds; spores; read-out: MIC-0
Method in brief: as §2

Row | SMILES | MIC [1] [µg/mL] | MIC [2] [µg/mL] | MIC [3] [µg/mL] | MIC [4] [µg/mL] | MIC-2 [5] | MIC-2 [6] | MIC-2 [7] | MIC-2 [8] | MIC-2 [9] | MIC-2 [10] | MIC-2 [11] | MIC-0 [12] | MIC [13] [µg/mL]
1 | OC(Cn1cncn1)(Cn1cncn1)c1ccc(F)cc1F [FLC, fluconazole] | > 31.2 | > 31.2 | 1.95 (≈ 6.37 µM) | 6.25 (≈ 20.4 µM) | 62.5^a μg/mL | >125^a μg/mL | 15.6^a μg/mL | >125^a μg/mL | >125^a μg/mL | 62.5^a μg/mL | 62.5^a μg/mL | 6.25^a μg/mL | 
2 | CC[C@@H]([C@H](C)O)n1ncn(-c2ccc(N3CCN(c4ccc(OC[C@@H]5CO[C@@](Cn6cncn6)(c6ccc(F)cc6F)C5)cc4)CC3)cc2)c1=O [POS, posaconazole] | 0.12 (≈ 0.171 µM) | 0.06 (≈ 0.0856 µM) | < 0.03 | 0.24 (≈ 0.342 µM) | 0.5^a μg/mL | >62.5^a μg/mL | 7.8a μg/mL | 31.2^a μg/mL | 31.2^a μg/mL | 15.6^a μg/mL | 15.6^a μg/mL | 0.195^a μg/mL | 0.48 (≈ 0.685 µM)
